Laboratory results taken from ChEMBL document CHEMBL1158365, “Alkyne chemistry in crop protection” (2009).
Converted amounts (≈) assume the structure as drawn.

Tests used:
Assay type in all cases: functional
[1] = test system: Plasmopara viticola; assay: Antioomycetic activity against Plasmopara viticola
[2] = test system: Phytophthora infestans; assay: Antioomycetic activity against Phytophthora infestans
[3] = test system: Ipomoea purpurea; assay: Herbicidal activity against Ipomoea purpurea
[4] = test system: Abutilon theophrasti; assay: Herbicidal activity against Abutilon theophrasti

## C#CCOc1ccc(CCNC(=O)C(OC(=O)OC)c2ccc(Cl)cc2)cc1OC (centres undefined)
[1]
  EC80: 110 µg/mL (≈ 254 µM)
[2]
  EC80: 38.6 µg/mL (≈ 89.4 µM)

## C#CCOc1ccc(CCNC(=O)C(OC(C)(C)C#C)c2ccc(Cl)cc2)cc1OC (centres undefined)
[1]
  EC80: 3.5 µg/mL (≈ 7.96 µM)
[2]
  EC80: 4.9 µg/mL (≈ 11.1 µM)

## C#CCn1c(=O)ccc2cc(F)c(-n3c(=O)cc(C(F)(F)F)n(C)c3=O)cc21
[3]
  ED85: 3 g/ha
[4]
  ED85: 1 g/ha

## Cn1c(C(F)(F)F)cc(=O)n(-c2cc3c(ccc(=O)n3C)cc2F)c1=O
[3]
  ED85: 10 g/ha
[4]
  ED85: 10 g/ha

## C#CCOc1ccc(CCNC(=O)C(OC(=O)CC)c2ccc(Cl)cc2)cc1OC (centres undefined)
[1]
  EC80: 2.8 µg/mL (≈ 6.51 µM)
[2]
  EC80: 4.2 µg/mL (≈ 9.77 µM)

## Cn1c(C(F)(F)F)cc(=O)n(-c2cc3[nH]c(=O)ccc3cc2F)c1=O
[3]
  ED85: 30 g/ha
[4]
  ED85: 30 g/ha

## C=CCn1c(=O)ccc2cc(F)c(-n3c(=O)cc(C(F)(F)F)n(C)c3=O)cc21
[3]
  ED85: 3 g/ha
[4]
  ED85: 1 g/ha

## CCn1c(=O)ccc2cc(F)c(-n3c(=O)cc(C(F)(F)F)n(C)c3=O)cc21
[3]
  ED85: 10 g/ha
[4]
  ED85: 3 g/ha

## C#CCOc1ccc(CCNC(=O)C(O)c2ccc(Cl)cc2)cc1OC (centres undefined)
[1]
  EC80: 10.4 µg/mL (≈ 27.8 µM)
[2]
  EC80: 34.6 µg/mL (≈ 92.6 µM)

## C#CCOc1ccc(CCNC(=O)C(OC(C)C)c2ccc(Cl)cc2)cc1OC (centres undefined)
[1]
  EC80: 10.1 µg/mL (≈ 24.3 µM)
[2]
  EC80: 3.1 µg/mL (≈ 7.45 µM)

## C#CCOc1ccc(CCNC(=O)C(OCC)c2ccc(Cl)cc2)cc1OC (centres undefined)
[1]
  EC80: 2 µg/mL (≈ 4.98 µM)
[2]
  EC80: 4.6 µg/mL (≈ 11.4 µM)

## CC(C)Cn1c(=O)ccc2cc(F)c(-n3c(=O)cc(C(F)(F)F)n(C)c3=O)cc21
[3]
  ED85: 30 g/ha
[4]
  ED85: 10 g/ha

## C#CCOc1ccc(CCNC(=O)C(OCCC)c2ccc(Cl)cc2)cc1OC (centres undefined)
[1]
  EC80: 31 µg/mL (≈ 74.5 µM)
[2]
  EC80: 5.4 µg/mL (≈ 13 µM)

## C#CCOc1ccc(CCNC(=O)C(OCCF)c2ccc(Cl)cc2)cc1OC (centres undefined)
[1]
  EC80: 8.9 µg/mL (≈ 21.2 µM)
[2]
  EC80: 4.7 µg/mL (≈ 11.2 µM)

## C#CCOc1ccc(CCNC(=O)C(OCC#C)c2ccc(Cl)cc2)cc1OC (centres undefined) [MANDIPROPAMID]
[1]
  EC80: 1.2 µg/mL (≈ 2.91 µM)
[2]
  EC80: 0.1 µg/mL (≈ 0.243 µM)

## CCCn1c(=O)ccc2cc(F)c(-n3c(=O)cc(C(F)(F)F)n(C)c3=O)cc21
[3]
  ED85: 30 g/ha
[4]
  ED85: 10 g/ha

## C#CCOc1ccc(CCNC(=O)C(OCC#CC)c2ccc(Cl)cc2)cc1OC (centres undefined)
[1]
  EC80: 14 µg/mL (≈ 32.9 µM)
[2]
  EC80: 18.3 µg/mL (≈ 43 µM)

## Cn1c(C(F)(F)F)cc(=O)n(-c2cc3c(ccc(=O)n3CC#N)cc2F)c1=O
[3]
  ED85: 30 g/ha
[4]
  ED85: 10 g/ha

## C#CCOc1ccc(CCNC(=O)C(OC(=O)CC#N)c2ccc(Cl)cc2)cc1OC (centres undefined)
[1]
  EC80: 4.9 µg/mL (≈ 11.1 µM)
[2]
  EC80: 3.1 µg/mL (≈ 7.03 µM)

## C#CCOc1ccc(CCNC(=O)C(OC)c2ccc(Cl)cc2)cc1OC (centres undefined)
[1]
  EC80: 3.5 µg/mL (≈ 9.02 µM)
[2]
  EC80: 9.7 µg/mL (≈ 25 µM)

## C#CCOc1ccc(CCNC(=O)C(OCC=C)c2ccc(Cl)cc2)cc1OC (centres undefined)
[1]
  EC80: 18.6 µg/mL (≈ 44.9 µM)
[2]
  EC80: 44.1 µg/mL (≈ 107 µM)

## COC(=O)Cn1c(=O)ccc2cc(F)c(-n3c(=O)cc(C(F)(F)F)n(C)c3=O)cc21
[3]
  ED85: 100 g/ha
[4]
  ED85: 10 g/ha
